A short description of series [1]: Oral bioavailability in rat. As to conditions: in vivo. The class given is ADME, organism-based.
Series [2] deals with Rattus norvegicus. The experiment in a line: Oral activity determined using the salt-deplete spontaneously hypertensive rat (SHR) model, expressed as percent of maximum decrease in mean arterial pressure at a oral dose of 10 umol/kg for 0-6 hr. The class given is functional, Artery.
Series [3] relates to Rattus norvegicus. The series is described as follows: Oral activity determined using the salt-deplete spontaneously hypertensive rat (SHR) model, expressed as percent of maximum decrease in mean arterial pressure at a oral dose of 10 umol/kg for 12-18 hr. The class given is functional, Artery.
The subject of series [4] is Rattus norvegicus. The experiment in a line: Oral activity determined using the salt-deplete spontaneously hypertensive rat (SHR) model, expressed as percent of maximum decrease in mean arterial pressure at a oral dose of 10 umol/kg for 18-24 hr. It is filed as functional, Artery.
The test system of series [5] is Rattus norvegicus. The series is described as follows: Oral activity determined using the salt-deplete spontaneously hypertensive rat (SHR) model, expressed as percent of maximum decrease in mean arterial pressure at a oral dose of 10 umol/kg for 6-12 hr. It is filed as functional, Artery.
For a further series, the species on record is Oryctolagus cuniculus. The experiment in a line: Functional antagonism was measured by the ability of a single concentration of compound to block angiotensin II induced contractions in rabbit aortic smooth muscle strips. The conditions noted are these: Aorta.
Series [6] relates to Rattus norvegicus. The series is described as follows: Oral activity determined using the salt-deplete spontaneously hypertensive rat (SHR) model, expressed as percent of maximum decrease in mean arterial pressure at a oral dose of 30 umol/kg for 0-6 hr. It is filed as functional, Artery.
Series [7] relates to Rattus norvegicus. The experiment in a line: Oral activity determined using the salt-deplete spontaneously hypertensive rat (SHR) model, expressed as percent of maximum decrease in mean arterial pressure at a oral dose of 30 umol/kg for 12-18 hr. It is filed as functional, Artery.
Series [8] relates to Rattus norvegicus. The series is described as follows: Oral activity determined using the salt-deplete spontaneously hypertensive rat (SHR) model, expressed as percent of maximum decrease in mean arterial pressure at a oral dose of 30 umol/kg for 18-24 hr. It is filed as functional, Artery.
Series [9] relates to Rattus norvegicus. The series is described as follows: Oral activity determined using the salt-deplete spontaneously hypertensive rat (SHR) model, expressed as percent of maximum decrease in mean arterial pressure at a oral dose of 30 umol/kg for 6-12 hr. The class given is functional, Artery.
For series [10], the system named is Rattus norvegicus. The experiment in a line: Tested for fall in blood pressure on seventh day after dosing. It is filed as functional.

By bioavailability is commonly meant the share of a dose that reaches the circulation, judged against a reference dose that is usually intravenous. In series [1], `CC(C)C(OC(=O)C(C)(C)C)n1nnc(-c2ccccc2-c2ccc(Oc3c(C4CC4)nc4ccccc4c3C(=O)O)cc2)n1` (stereo not given) yielded a bioavailability of 39%. The Decrease in the series with Rattus norvegicus [2] was found to be 17%; in the series on Rattus norvegicus [3] it was 20%; with Rattus norvegicus [4], 19%; in the series with Rattus norvegicus [5], 17%.

In general, Kb refers to the affinity of an antagonist, worked out from how it opposes an agonist. In the series listed under Oryctolagus cuniculus, `O=C(O)c1c(Oc2ccc(-c3ccccc3-c3nn[nH]n3)cc2)c(C2CC2)nc2ccccc12` showed a Kb of 0.061 nM. For the same compound, the Decrease in the series with Rattus norvegicus [6] turned out to be 14%; in the series on Rattus norvegicus [7], 21%; in the series with Rattus norvegicus [8] it was 23%; in the series on Rattus norvegicus [9] it was 14%.

For the compound `CCC(=O)OC(OC(=O)c1c(Oc2ccc(-c3ccccc3-c3nn[nH]n3)cc2)c(C2CC2)nc2ccccc12)C(C)C` (stereo not given), the Decrease with Rattus norvegicus [2] was found to be 7%; in the series with Rattus norvegicus [3] it was 9%; with Rattus norvegicus [4] it was 19%; with Rattus norvegicus [5], 5%.

`CCCCc1nc(Cl)c(CO)n1Cc1ccc(-c2ccccc2-c2nnn[nH]2)cc1` [LOSARTAN] showed a Blood pressure with Rattus norvegicus [10] of 20 mmHg.

For the compound `CCOC(=O)c1c(Oc2ccc(-c3ccccc3-c3nn[nH]n3)cc2)c(C2CC2)nc2ccccc12`, the Decrease in the series with Rattus norvegicus [6] is 17%; in the series on Rattus norvegicus [7] it was 25%; in the series with Rattus norvegicus [8] it was 26%; in the series with Rattus norvegicus [9], 19%.

`Cc1oc(=O)oc1COC(=O)c1c(Oc2ccc(-c3ccccc3-c3nn[nH]n3)cc2)c(C2CC2)nc2ccccc12` yielded a bioavailability in [1] of 27%. In addition, in the series with Rattus norvegicus [10], the Blood pressure was 45 mmHg. Also, the Decrease in the series on Rattus norvegicus [2] is 19%; with Rattus norvegicus [3] it was 23%; with Rattus norvegicus [4], 24%; in the series with Rattus norvegicus [5], 19%.
